According to patent publication US20250034116A1, “1,4-DIHETEROCYCLIC SUBSTITUTED AROMATIC RING OR AROMATIC HETEROCYCLIC COMPOUND AND USE THEREOF” (BeBetter Med Inc., priority 2022, published 2025):

Experiments:
Assay type in all cases: biochemical
[1] = system: CYP enzymes in human liver microsomes (HLM); assay: Inhibition of 20-HETE production in human liver microsomes (HLM)
Procedure, shortened: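 Liver microsomes (human or mouse) or recombinant CYP4F2 or CYP4A11 in potassium phosphate buffer mixed with compound, then with 400 μM substrate solution (stock). After 10 min preincubation at 37 °C, reaction started with 6 mM NADPH solution (stock) and run 25 min at 37 °C. 20-HETE formation quantified by LC-MS/MS; IC50 from a four-parameter Hill fit, with percent inhibition also reported at 1000, 500 or 100 nM.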

[2] = system: CYP enzymes in rat liver microsomes (RLM); assay: Inhibition of 20-HETE production in rat liver microsomes (RLM)
Procedure, shortened: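 Test compounds were dissolved in DMSO, diluted in acetonitrile/DMSO (3:1), and 2 μl was mixed with 100 μl potassium phosphate buffer containing rat liver microsomes in a 96-well plate. Duplicate 30 μl aliquots received 15 μl of 400 μM substrate, were preheated at 37° C. for 10 minutes, then started with 15 μl of 6 mM NADPH for 25 minutes. LC-MS/MS measured 20-HETE formation.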

[3] = system: CYP enzymes in mouse liver microsomes (MLM); assay: Inhibition of 20-HETE production in mouse liver microsomes (MLM)
Description: Experimental principle: The inhibitory activity of 20-HETE production is evaluated by testing the inhibitory effects of the compound on human liver microsomes (HLM), rat liver microsomes (RLM), mouse liver microsomes (MLM), or […] CYP4 subtype enzymes (CYP4F2). This assay employs HLM, RLM, or MLM along with recombinant CYP4F2 (rCYP4F2) and recombinant CYP4A11 (rCYP4A11), which are […] CYP4 subtype enzymes, to detect the effects of the test compound at different concentrations on the metabolic rate of enzyme-specific substrates, to determine the inhibitory effects of the test compound on CYP enzymes in HLM, RLM, or MLM.
Experimental methods: Dissolve the test compound in DMSO, and subsequently dilute it with an acetonitrile and DMSO mixture (3:1). Add 2 μl of varying concentrations of the test compound and 100 μl of potassium phosphate buffer containing either liver microsomes or recombinant enzymes to a 96-well plate. After mixing well, transfer 30 μl to another well (in duplicate), add 15 μl of 400 μM substrate solution, and mix well again. Preheat at 37° C. for 10 minutes, and then add 15 μl of 6 mM NADPH and incubate at 37° C. for 25 minutes. After 25 minutes, add 160 μl of acetonitrile solution (containing 0.1 μg/ml internal standard) to stop the reaction. Mix well, centrifuge at 3500 g for 15 minutes, and then analyze the supernatant using LC-MS/MS.
Plot the compound concentration on the x-axis and the inhibition rate on the y-axis to draw the curve. Use GraphPad Prism 5 software to fit the curve and calculate the IC50. The formula is Y=Bottom+(Top−Bottom)/(1+10^((Log IC50−X)×HillSlope)). X represents the logarithmic concentration of the inhibitor, and Y represents the relative enzyme activity at a given inhibitor concentration (relative to the condition without the inhibitor).
Calculate the inhibition percentages at concentrations of 1000 nM, 500 nM, or 100 nM as well as the half-maximal inhibitory concentration (IC50) of the test compound from the above experiment.

SMILES | IC50 [1] | HLM (% inh @ 500 nM) [1] | IC50 [2] | IC50 [3] | RLM (% inh @ 500 nM) [2] | HLM (% inh @ 100 nM) [1] | MLM (% inh @ 1000 nM) [3]
C[C@H]1CN(c2ccc(-c3cn[nH]c3)c(F)c2F)CCN1C(=O)N1CCCC1 [Compound 105, (S)-(4-(2,3-difluoro-4-(1H-pyrazol-4-yl)phenyl)-2-methylpiperazin-1-yl)(pyrrolidin-1-yl) methanone] | 11.1 nM | 79.54% | 9.78 nM | 1520 nM | – | – | –
C[C@@H]1CN(c2ccc(-c3cn[nH]c3)c(F)c2F)CCN1C(=O)N1CCCC1 [Compound 103, (R)-(4-(2,3-difluoro-4-(1H-pyrazol-4-yl)phenyl)-2-methylpiperazin-1-yl)(pyrrolidin-1-yl) methanone] | 12 nM | 80.55% | – | 743 nM | 74.73% | – | –
O=C(Nc1ccccc1)C1CCN(c2ccc(-c3cn[nH]c3)cc2)CC1 [Compound 58, 1-(4-(1H-pyrazol-4-yl)phenyl)-N-phenylpiperidine-4-carboxamide] | 16.6 nM | – | – | 1570 nM | 44.45% | – | –
O=C(C1CCCC1)N1CCC2(CCN(c3ccc(-c4cn[nH]c4)cc3F)C2)C1 (centres unmarked) [Compound 124, cyclopentyl(7-(2-fluoro-4-(1H-pyrazol-4-yl)phenyl)-2,7-diazaspiro[4.4]nonan-2-yl) methanone] | 32.8 nM | 88.29% | – | 1850 nM | 74.61% | – | –
O=C(N1CCCC1)N1CC2CN(c3ccc(-c4cn[nH]c4)c(F)c3F)CC2C1 (centres unmarked) [Compound 127, (5-(2,3-difluoro-4-(1H-pyrazol-4-yl)phenyl)hexahydropyrrolo[3,4-c]pyrrol-2 (1H)-yl)(pyrrolidin-1-yl) methanone] | 18.3 nM | – | 17.9 nM | 1900 nM | 74.10% | – | –
O=C(N1CCC(c2ccc(-c3cn[nH]c3)c(F)c2F)CC1)C1(O)CCCCC1 [Compound 110, (4-(2,3-difluoro-4-(1H-pyrazol-4-yl)phenyl)piperidin-1-yl)(1-hydroxycyclohexyl) methanone] | 16.1 nM | 92.92% | 29.5 nM | 174 nM | 77.32% | – | –
O=C1CCC(C(=O)N2CCC(c3ccc(-c4cn[nH]c4)c(F)c3F)CC2)CC1 [Compound 107, 4-(4-(2,3-difluoro-4-(1H-pyrazol-4-yl)phenyl)piperidine-1-carbonyl)cyclohexane-1-one] | 23.6 nM | – | 33.4 nM | 720 nM | 69.55% | – | –
O=C(CC1CCCC1)N1CCC(c2ccc(-c3cn[nH]c3)c(F)c2F)CC1 [Compound 93, 2-cyclopentyl-1-(4-(2,3-difluoro-4-(1H-pyrazol-4-yl)phenyl)piperidin-1-yl)ethan-1-one] | – | 91.77% | – | 296 nM | 80.86% | – | –
CC1CN(c2ccc(-c3cn[nH]c3)cc2F)CC(C)N1C(=O)N1CCCC1 (centres unmarked) [Compound 130, (4-(2-fluoro-4-(1H-pyrazol-4-yl)phenyl)-2,6-dimethylpiperazin-1-yl)(pyrrolidin-1-yl) methanone] | 7.62 nM | – | 22.8 nM | 414 nM | – | – | –
O=C(C1CCOC1)N1CCC(c2ccc(-c3cn[nH]c3)cc2F)CC1 (centres unmarked) [Compound 144, (4-(2-fluoro-4-(1H-pyrazol-4-yl)phenyl)piperidin-1-yl)(tetrahydrofuran-3-yl) methanone] | – | – | – | – | – | 87.74% | 60.66%
O=C(N1CCC(c2ccc(-c3cn[nH]c3)cc2F)CC1)C1(F)CCCCC1 [Compound 141, (4-(2-fluoro-4-(1H-pyrazol-4-yl)phenyl)piperidin-1-yl)(1-fluorocyclohexyl) methanone] | – | – | – | – | – | 88.15% | 59.36%
O=C(N1CCC(c2ccc(-c3cn[nH]c3)cc2F)CC1)N1Cc2ccccc2C1 [Compound 136, (4-(2-fluoro-4-(1H-pyrazol-4-yl)phenyl)piperidin-1-yl)(isoindolin-2-yl) methanone] | 19.4 nM | – | – | 664 nM | – | 87.34% | –
